Laboratory results taken from US20090092603A1, “EARLY DIAGNOSIS AND TREATMENT OF DRUG RESISTANCE IN MUC1-POSITIVE CANCER” (priority 2007, published 2009).
Where two headings read alike, the source gives them in different places.

Test system: HERCEPTIN-resistant BTRes1 cells
Conditions: drug with control Fab, compared to BT474

Compound: O=P1(N(CCCl)CCCl)NCCCO1 (centres unmarked) [cyclophosphamide]
- cytotoxic effect of the drug in cells that acquired HERCEPTIN® resistance: acquired resistance
- cytotoxic effect of the drug in cells that acquired HERCEPTIN® resistance (listed as Cyclophosphamide): lost
